Experimental data published in US6054490A, “Use of sesquiterpenes for inhibiting oxidative enzymes” (Zylepsis Limited, priority 1995, dated 2000).
pIC50, pKd: −log10 of the molar value.

Experiments:
CYP3A4 = conditions: cited from earlier work
[1] = racemic nitrendipine; cited from earlier work
[2] = oral administration with water; cited from earlier work
cytochrome P450 3A4 [3] = biological target: T1, cytochrome P450 3A4 (Homo sapiens, UniProt P08684); test: Inhibition of cyclosporin A metabolism (3 metabolites M1, M6, M21) by yeast-expressed P450 3A4 microsomes; type: biochemical
T1 construct: made in house; host or cells: Saccharomyces cerevisiae strain AH22, vector pAAH5 (p3A4); microsomal fractions
Description: Human cytochrome P450 3A4 was expressed using the vector pAAH5 (p3A4) in Saccharomyces cerevisiae strain AH22 (Guengerich et al., 1991). Plasmid DNA was prepared using Promega's Wizard kit and S. cerevisiae strain AH22 (a his4-519 leu2-3,2-112) was used for transformation. Transformants were grown and maintained at 30° C. on minimal medium containing 2% (w/v) glucose, 0.67% (w/v) Difco yeast nitrogen base without amino acids and 20 μg/ml histidine. Cytochrome P450 content and substrate binding studies were carried out spectrally using a Philips PU8800 US/Vis scanning spectrophotometer according to Omura and Sato (1964) and Jefcoate (1979) respectively. Protein content was determined by the method of Lowry et al. 1956. […] CO was bubbled into the sample cuvette and the difference spectrum was recorded between 390-500 nm. […] Nootkatone was added to the microsomal fractions in the sample cuvette but to the buffer in the reference cuvette and difference spectra recorded between 350-500 nm. […]
The ethyl acetate extracts from biotransformation studies were directly spotted on to TLC plates and developed in solvent system heptane/pyridine/ethyl acetate (100/75/1 v/v) in a chromatographic tank lined with a blotting paper the same size as the TLC plate. […] The Rf valves of spots were measured and compared to the literature. […]

[4] = system: felodipine first-pass metabolism; conditions: in vivo; cited from earlier work
cytochrome P450 3A4 [5] = biological target: T1, cytochrome P450 3A4; test: biochemical; type: binding
Description: Human cytochrome P450 3A4 was expressed using the vector pAAH5 (p3A4) in Saccharomyces cerevisiae strain AH22 (Guengerich et al., 1991). Plasmid DNA was prepared using Promega's Wizard kit and S. cerevisiae strain AH22 (a his4-519 leu2-3,2-112) was used for transformation. Transformants were grown and maintained at 30° C. on minimal medium containing 2% (w/v) glucose, 0.67% (w/v) Difco yeast nitrogen base without amino acids and 20 μg/ml histidine. Cytochrome P450 content and substrate binding studies were carried out spectrally using a Philips PU8800 US/Vis scanning spectrophotometer according to Omura and Sato (1964) and Jefcoate (1979) respectively. Protein content was determined by the method of Lowry et al. 1956. Yeast microsomal fractions used in reduced carbon monoxide difference spectra, substrate binding studies and metabolism studies were prepared as described previously (Mehmood et al., 1995). This involved mechanical breakage of the yeast cells (harvested at 5×10^7 cells/ml) using a Braun MSK homogeniser and centrifugation to pellet cells and mitochondria prior to harvesting microsomes after 1 h, 100000 g. […] CO was bubbled into the sample cuvette and the difference spectrum was recorded between 390-500 nm. […] Nootkatone was added to the microsomal fractions in the sample cuvette but to the buffer in the reference cuvette and difference spectra recorded between 350-500 nm.

[6] = system: cytochrome P450 or related enzyme system; test: Inhibition of the first enzyme catalysed oxidative step (conversion of valencene to nootkatone); type: cell-based, both eukaryotes and prokaryotes; conditions: valencene oxidation; many organisms, eukaryotes and prokaryotes
Text: In addition to plant produced nootkatone a number of enzyme systems produced by organisms other than higher plants have the capability of converting synthetic precursors of nootkatone to nootkatone itself. Thus, for example, a variety of microorganisms can oxidise valencene to nootkatone.
Whilst investigating such transformations as effected by bacteria and fungi, it was deduced that the conversion was the result of two oxidative steps. The first was indicated to be carried out by an enzyme thought to be a cytochrome P450 or related enzyme system. The second appeared as an oxidoreductase transformation.

[7] = Toxicity of nootkatone at concentrations in grapefruit juice; conditions: at concentrations found in normal strength grapefruit juice (approximately 7 mg/200 ml)

T1 sequence (P08684 whole entry): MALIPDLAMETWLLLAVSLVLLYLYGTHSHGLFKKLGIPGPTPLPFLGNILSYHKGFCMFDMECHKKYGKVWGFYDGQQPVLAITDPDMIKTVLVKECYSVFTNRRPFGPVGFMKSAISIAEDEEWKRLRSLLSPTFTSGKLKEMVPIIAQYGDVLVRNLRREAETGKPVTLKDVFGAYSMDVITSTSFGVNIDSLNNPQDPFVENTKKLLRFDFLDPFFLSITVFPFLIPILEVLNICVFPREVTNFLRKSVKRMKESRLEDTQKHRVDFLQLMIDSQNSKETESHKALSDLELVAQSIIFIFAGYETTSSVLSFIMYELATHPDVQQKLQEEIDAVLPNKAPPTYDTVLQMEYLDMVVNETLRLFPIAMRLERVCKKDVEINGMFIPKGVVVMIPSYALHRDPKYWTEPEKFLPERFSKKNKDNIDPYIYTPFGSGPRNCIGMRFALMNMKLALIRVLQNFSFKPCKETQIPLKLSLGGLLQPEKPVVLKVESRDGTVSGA

Q: Which “inhibition of CYP3A4” value (CYP3A4) does the source give for `CC(=O)N1CCN(c2ccc(OCC3COC(Cn4ccnc4)(c4ccc(Cl)cc4Cl)O3)cc2)CC1` (stereo not shown) [ketoconazole] here?
A: known to inhibit CYP3A4

Q: Which gastrointestinal absorption [1] does the source give for `CCOC(=O)C1=C(C)NC(C)=C(C(=O)OC)C1c1cccc([N+](=O)[O-])c1` (racemic) [nitrendipine] here?
A: almost complete

Q: And the systemic bioavailability [1]?
A: 5% to 30

Q: Which average bioavailability [2] does the source give for `CCOC(=O)C1=C(C)NC(C)=C(C(=O)OC)C1c1cccc(Cl)c1Cl` (stereo not shown) [felodipine] here?
A: 15%

Q: For `C=C(C)C1CCC2=CC(O)CC(C)C2(C)C1` (stereo not shown) [nootkatol], which “inhibitory effect compared with nootkatone” value (cytochrome P450 3A4 [3]; similar experiments to nootkatone) is on record?
A: less marked inhibitory effect

Q: For `C[C@@H]1O[C@@H](O[C@H]2[C@H](Oc3cc(O)c4c(c3)O[C@H](c3ccc(O)cc3)CC4=O)O[C@H](CO)[C@@H](O)[C@@H]2O)[C@H](O)[C@H](O)[C@H]1O` [naringin], which “interaction with felodipine compared with grapefruit juice” value [4] is on record?
A: less interaction

Q: Which results are given for `C=C(C)[C@@H]1CCC2=CC(=O)C[C@@H](C)[C@]2(C)C1` [nootkatone]?
A: pKd (cytochrome P450 3A4 [5]): 4.00 to 4.10; inhibition of the first enzyme catalysed oxidative step [6]: acts as an inhibitor of the first enzyme catalysed oxidative step; pIC50 (cytochrome P450 3A4 [3]): > 3.85; toxicity [7]: does not appear to be toxic
